Here are results for 13 compounds from patent publication US5843889A, “Glycopeptide antibiotic derivatives” (Eli Lilly and Company, priority 1997, dated 1998).

What all share (format): cell-based
The subject of experiment [1] is Staphylococcus aureus SA1199. The experiment in a line: MIC, standard broth micro-dilution assay. As to the method: The MIC's were determined using a standard broth micro-dilution assay.
Experiment [2] deals with Entercoccus faecalis 2041. The experiment in a line: MIC, standard broth micro-dilution assay. Here is the method: (§1) The formula I compounds have in vitro and in vivo activity against Gram-positive pathogenic bacteria. The MIC's were determined using a standard broth micro-dilution assay.
Background: Dilution methods test growth across graded concentrations, often in twofold steps.

The subject of experiment [3] is Entercoccus faecalis 276. The experiment in a line: MIC, standard broth micro-dilution assay. Here is the method:
as §1

Experiment [4] deals with Entercoccus gallinarum 245. The experiment in a line: MIC, standard broth micro-dilution assay. Here is the method: as §1
In experiment [5] the test system is Pedicoccus acidilacti. The experiment in a line: MIC, agar dilution on brain-heart infusion agar. The conditions noted are these: Pedioccccus acidilacti (mean of 10). In general terms: In agar dilution, organisms are placed on agar that contains the substance at set levels.

≈ marks a conversion by molar mass, not a printed value. A value given as a limit tells only on which side of the number the result lay.

For orientation: MIC means the least concentration at which growth counts as inhibited. For `CNC(CC(C)C)C(=O)NC1C(=O)NC(CC(N)=O)C(=O)NC2C(=O)NC3C(=O)NC(C(=O)NC(C(=O)O)c4cc(O)cc(O)c4-c4cc3ccc4O)C(OC3CC(C)(N)C(O)C(C)O3)c3ccc(c(Cl)c3)Oc3cc2cc(c3OC2OC(CO)C(O)C(O)C2OC2CC(C)(NCc3ccc(Oc4ccc([N+](=O)[O-])cc4)cc3)C(O)C(C)O2)Oc2ccc(cc2Cl)C1O` (stereo not shown) [Compound 57, 4-[4-nitrophenoxy]benzyl], the MIC in experiment [1] is 1 µg/mL (≈ 0.55 µM); in experiment [2] it was at most 0.06 µg/mL; in experiment [3], 0.5 µg/mL (≈ 0.275 µM); in experiment [4], 2 µg/mL (≈ 1.1 µM).
In the case of `CNC(CC(C)C)C(=O)NC1C(=O)NC(CC(N)=O)C(=O)NC2C(=O)NC3C(=O)NC(C(=O)NC(C(=O)O)c4cc(O)cc(O)c4-c4cc3ccc4O)C(OC3CC(C)(N)C(O)C(C)O3)c3ccc(c(Cl)c3)Oc3cc2cc(c3OC2OC(CO)C(O)C(O)C2OC2CC(C)(NCCc3ccccc3OCc3ccccc3)C(O)C(C)O2)Oc2ccc(cc2Cl)C1O` (stereo not shown) [Compound 59, 2-benzyloxyphenethyl], the values for the MIC in experiment [1], in experiment [2] and in experiment [4] were at most 0.06 µg/mL, 0.5 µg/mL (≈ 0.277 µM) and 1 µg/mL (≈ 0.555 µM), respectively.
Take `CCOc1ccc2ccccc2c1CNC1(C)CC(OC2C(Oc3c4cc5cc3Oc3ccc(cc3Cl)C(OC3CC(C)(N)C(O)C(C)O3)C3NC(=O)C(NC(=O)C5NC(=O)C(CC(N)=O)NC(=O)C(NC(=O)C(CC(C)C)NC)C(O)c5ccc(c(Cl)c5)O4)c4ccc(O)c(c4)-c4c(O)cc(O)cc4C(C(=O)O)NC3=O)OC(CO)C(O)C2O)OC(C)C1O` (stereo not shown) [Compound 60, 2-ethoxy-1-naphthylmethyl]: the results for the MIC in experiment [1], in experiment [3] and in experiment [4] were 0.5 µg/mL (≈ 0.281 µM), 0.5 µg/mL (≈ 0.281 µM) and 16 µg/mL (≈ 9.01 µM), respectively.
Regarding `CNC(CC(C)C)C(=O)NC1C(=O)NC(CC(N)=O)C(=O)NC2C(=O)NC3C(=O)NC(C(=O)NC(C(=O)O)c4cc(O)cc(O)c4-c4cc3ccc4O)C(OC3CC(C)(N)C(O)C(C)O3)c3ccc(c(Cl)c3)Oc3cc2cc(c3OC2OC(CO)C(O)C(O)C2OC2CC(C)(NCc3cccc4c3OCO4)C(O)C(C)O2)Oc2ccc(cc2Cl)C1O` (stereo not shown) [Compound 58, 2,3-methylenedioxybenzyl], the minimal inhibitory concentration (MIC) stood at 1 µg/mL (≈ 0.579 µM) in experiment [1]; 0.5 µg/mL (≈ 0.29 µM) in experiment [2]; 0.5 µg/mL (≈ 0.29 µM) in experiment [3]; 0.5 µg/mL (≈ 0.29 µM) in experiment [4]; 55 µg/mL (≈ 31.9 µM) in experiment [5].
With `CNC(CC(C)C)C(=O)NC1C(=O)NC(CC(N)=O)C(=O)NC2C(=O)NC3C(=O)NC(C(=O)NC(C(=O)O)c4cc(O)cc(O)c4-c4cc3ccc4O)C(OC3CC(C)(N)C(O)C(C)O3)c3ccc(c(Cl)c3)Oc3cc2cc(c3OC2OC(CO)C(O)C(O)C2OC2CC(C)(NCc3ccc4c(c3)OCCO4)C(O)C(C)O2)Oc2ccc(cc2Cl)C1O` (stereo not shown) [Compound 56], the minimal inhibitory concentration (MIC) in experiment [1] amounted to 0.5 µg/mL (≈ 0.287 µM); in experiment [2], 0.25 µg/mL (≈ 0.144 µM); in experiment [3], 0.25 µg/mL (≈ 0.144 µM); in experiment [4], 16 µg/mL (≈ 9.19 µM).
Regarding `CNC(CC(C)C)C(=O)NC1C(=O)NC(CC(N)=O)C(=O)NC2C(=O)NC3C(=O)NC(C(=O)NC(C(=O)O)c4cc(O)cc(O)c4-c4cc3ccc4O)C(OC3CC(C)(N)C(O)C(C)O3)c3ccc(c(Cl)c3)Oc3cc2cc(c3OC2OC(CO)C(O)C(O)C2OC2CC(C)(NCc3ccc(OC(=O)C4CCCCC4)cc3)C(O)C(C)O2)Oc2ccc(cc2Cl)C1O` (stereo not shown) [Compound 157, 4-cyclohexanoyloxybenzyl], the figures for the minimum inhibitory concentration (MIC) in experiment [2], in experiment [3] and in experiment [4] were at most 0.06 µg/mL, at most 0.06 µg/mL and 1 µg/mL (≈ 0.553 µM), respectively.
Regarding `CNC(CC(C)C)C(=O)NC1C(=O)NC(CC(N)=O)C(=O)NC2C(=O)NC3C(=O)NC(C(=O)NC(C(=O)O)c4cc(O)cc(O)c4-c4cc3ccc4O)C(OC3CC(C)(N)C(O)C(C)O3)c3ccc(c(Cl)c3)Oc3cc2cc(c3OC2OC(CO)C(O)C(O)C2OC2CC(C)(NCc3ccc(-c4ccc([N+](=O)[O-])cc4)cc3)C(O)C(C)O2)Oc2ccc(cc2Cl)C1O` (stereo not shown) [Compound 64, 4-[4-nitrophenyl]benzyl], the MIC is at most 0.06 µg/mL in experiment [2], 0.5 µg/mL (≈ 0.277 µM) in experiment [3] and 2 µg/mL (≈ 1.11 µM) in experiment [4].
`CNC(CC(C)C)C(=O)NC1C(=O)NC(CC(N)=O)C(=O)NC2C(=O)NC3C(=O)NC(C(=O)NC(C(=O)O)c4cc(O)cc(O)c4-c4cc3ccc4O)C(OC3CC(C)(N)C(O)C(C)O3)c3ccc(c(Cl)c3)Oc3cc2cc(c3OC2OC(CO)C(O)C(O)C2OC2CC(C)(NCc3ccc(-c4ccc(OC)cc4)s3)C(O)C(C)O2)Oc2ccc(cc2Cl)C1O` (stereo not shown) [Compound 71, 5-[4-methoxyphenyl]-2-thienylinethyl]: the minimum inhibitory concentration (MIC) in experiment [2] amounted to 1 µg/mL (≈ 0.557 µM); in experiment [3] it was 2 µg/mL (≈ 1.11 µM); in experiment [4], 8 µg/mL (≈ 4.46 µM).
Take `CNC(CC(C)C)C(=O)NC1C(=O)NC(CC(N)=O)C(=O)NC2C(=O)NC3C(=O)NC(C(=O)NC(C(=O)O)c4cc(O)cc(O)c4-c4cc3ccc4O)C(OC3CC(C)(N)C(O)C(C)O3)c3ccc(c(Cl)c3)Oc3cc2cc(c3OC2OC(CO)C(O)C(O)C2OC2CC(C)(NCc3ccc(OC(F)(F)C(F)F)cc3)C(O)C(C)O2)Oc2ccc(cc2Cl)C1O` (stereo not shown) [Compound 121, 4-[1,1,2,2-tetrafluoroethoxy]benzyl]: the figures for the MIC in experiment [2], in experiment [3] and in experiment [4] were at most 0.06 µg/mL, at most 0.06 µg/mL and 2 µg/mL (≈ 1.11 µM), respectively.
As to `CNC(CC(C)C)C(=O)NC1C(=O)NC(CC(N)=O)C(=O)NC2C(=O)NC3C(=O)NC(C(=O)NC(C(=O)O)c4cc(O)cc(O)c4-c4cc3ccc4O)C(OC3CC(C)(N)C(O)C(C)O3)c3ccc(c(Cl)c3)Oc3cc2cc(c3OC2OC(CO)C(O)C(O)C2OC2CC(C)(NCCCCCCCCCC#Cc3ccccc3)C(O)C(C)O2)Oc2ccc(cc2Cl)C1O` (stereo not shown) [Compound 236, 11-phenyl-10-undecynyl], the minimum inhibitory concentration (MIC) stood at 1 µg/mL (≈ 0.55 µM) in experiment [2], 2 µg/mL (≈ 1.1 µM) in experiment [3] and 4 µg/mL (≈ 2.2 µM) in experiment [4].
Regarding `CNC(CC(C)C)C(=O)NC1C(=O)NC(CC(N)=O)C(=O)NC2C(=O)NC3C(=O)NC(C(=O)NC(C(=O)O)c4cc(O)cc(O)c4-c4cc3ccc4O)C(OC3CC(C)(N)C(O)C(C)O3)c3ccc(c(Cl)c3)Oc3cc2cc(c3OC2OC(CO)C(O)C(O)C2OC2CC(C)(NCc3ccc(N(C)c4ccccc4)cc3)C(O)C(C)O2)Oc2ccc(cc2Cl)C1O` (stereo not shown) [Compound 178, 4-[N-methylanilino]benzyl], the figures for the MIC in experiment [2], in experiment [3] and in experiment [4] were at most 0.06 µg/mL, 0.5 µg/mL (≈ 0.28 µM) and 2 µg/mL (≈ 1.12 µM), respectively.
In the case of `CNC(CC(C)C)C(=O)NC1C(=O)NC(CC(N)=O)C(=O)NC2C(=O)NC3C(=O)NC(C(=O)NC(C(=O)O)c4cc(O)cc(O)c4-c4cc3ccc4O)C(OC3CC(C)(N)C(O)C(C)O3)c3ccc(c(Cl)c3)Oc3cc2cc(c3OC2OC(CO)C(O)C(O)C2OC2CC(C)(NCCCCC3CCCCC3)C(O)C(C)O2)Oc2ccc(cc2Cl)C1O` (stereo not shown) [Compound 205, 4-cyclohexylbutyl], the MIC stood at 0.25 µg/mL (≈ 0.144 µM) in experiment [2], 0.5 µg/mL (≈ 0.289 µM) in experiment [3] and 1 µg/mL (≈ 0.578 µM) in experiment [4].
Take `CNC(CC(C)C)C(=O)NC1C(=O)NC(CC(N)=O)C(=O)NC2C(=O)NC3C(=O)NC(C(=O)NC(C(=O)O)c4cc(O)cc(O)c4-c4cc3ccc4O)C(OC3CC(C)(N)C(O)C(C)O3)c3ccc(c(Cl)c3)Oc3cc2cc(c3OC2OC(CO)C(O)C(O)C2OC2CC(C)(NCCCCCCCCOc3ccccc3)C(O)C(C)O2)Oc2ccc(cc2Cl)C1O` (stereo not shown) [Compound 195, 8-phenoxyoctyl]: the minimum inhibitory concentration (MIC) was at most 0.06 µg/mL in experiment [2], 0.25 µg/mL (≈ 0.139 µM) in experiment [3] and 4 µg/mL (≈ 2.23 µM) in experiment [4].
